# Source: US12011444B2, “N-substituted indole derivatives as PGE2 receptor modulators” (Idorsia Pharmaceuticals Ltd, priority 2015, dated 2024)
# Tests used:
# [1] = target: PTRGER4 (EP4) (Homo sapiens (Human), UniProt P35408); assay: hEP4 b-arrestin assay (PathHunter HEK 293 PTGER4 b-arrestin cells); assay type: cell-based; details: hEP4 b-arrestin assay (values without asterisk)
# In short: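 Antagonist mode: compound is given 15 min at 37 °C, then 20 nM (final) PGE2 for 120 min, in HEK293 cells stably expressing EP4 fused to ProLink and β-arrestin 2 fused to EA. Recruitment read as β-gal luminescence after 1 h reagent at room temperature, as percent of DMSO control.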
# [2] = target: PTGER2 (EP2) (Homo sapiens (Human), UniProt P43116); assay: hEP2 b-arrestin assay (PathHunter HEK 293 PTGER2 b-arrestin cells); assay type: cell-based; details: hEP2 b-arrestin assay (values without asterisk)
# Chain of PTGER2 (EP2) (P43116 whole entry): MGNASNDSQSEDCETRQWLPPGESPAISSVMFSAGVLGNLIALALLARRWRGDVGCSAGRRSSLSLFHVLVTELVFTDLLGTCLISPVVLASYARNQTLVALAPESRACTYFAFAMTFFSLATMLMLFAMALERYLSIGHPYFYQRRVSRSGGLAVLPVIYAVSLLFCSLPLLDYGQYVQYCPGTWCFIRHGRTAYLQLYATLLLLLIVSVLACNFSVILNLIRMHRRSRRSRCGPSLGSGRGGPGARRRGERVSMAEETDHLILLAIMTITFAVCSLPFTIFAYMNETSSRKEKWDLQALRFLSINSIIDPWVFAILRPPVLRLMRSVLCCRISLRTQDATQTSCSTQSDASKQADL
# In short: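 Readout is β-galactosidase complementation luminescence, expressed as percent of DMSO control (duplicates). PathHunter HEK293 EP2/β-arrestin 2 cells, grown 24 h, received compound for 15 min at 37 °C before a 120 min challenge with PGE2 at 5 μM final, followed by 1 h detection at room temperature.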
# Chain of PTRGER4 (EP4) (P35408 whole entry, looked up, the tested form may be a part): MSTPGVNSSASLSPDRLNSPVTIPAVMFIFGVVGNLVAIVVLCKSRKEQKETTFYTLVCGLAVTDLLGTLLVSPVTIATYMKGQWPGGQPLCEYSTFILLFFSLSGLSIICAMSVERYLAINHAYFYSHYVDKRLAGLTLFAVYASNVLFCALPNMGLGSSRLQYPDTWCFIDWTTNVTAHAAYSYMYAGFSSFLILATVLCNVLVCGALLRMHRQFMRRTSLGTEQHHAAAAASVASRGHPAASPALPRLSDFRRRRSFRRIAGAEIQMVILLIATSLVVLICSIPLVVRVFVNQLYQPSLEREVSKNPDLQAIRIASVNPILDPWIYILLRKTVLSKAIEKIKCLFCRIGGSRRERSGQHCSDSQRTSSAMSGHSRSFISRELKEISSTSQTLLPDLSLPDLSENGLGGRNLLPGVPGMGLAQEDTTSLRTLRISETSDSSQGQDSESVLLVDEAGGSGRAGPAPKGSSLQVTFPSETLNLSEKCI
structure (smiles),measurement,setting,value
"COc1ccc(F)c2c1cc(C#N)n2CCNc1cc(-c2c(C)nn(C)c2C)ncn1 [Example 998, 7-Fluoro-4-methoxy-1-{2-[6-(1,3,5-trimethyl-1H-pyrazol-4-yl)-pyrimidin-4-ylamino]-ethyl}-1H-indole-2-carbonitrile]",IC50,[1],686 nM
same,IC50,[2],48 nM
"COC(=O)c1ccc(-c2cc(NCCn3c(C#N)cc4c(OC)ccc(F)c43)ncn2)cc1F [Example 999, 4-{6-[2-(2-Cyano-7-fluoro-4-methoxy-indol-1-yl)-ethylamino]-pyrimidin-4-yl}-2-fluoro-benzoic acid methyl ester]",IC50,[1],23 nM
same,IC50,[2],30 nM
"COc1ccc(F)c2c1cc(C#N)n2CCNc1cc(-c2ccc3[nH]c(=O)[nH]c3c2)ncn1 [Example 1000, 7-Fluoro-4-methoxy-1-{2-[6-(2-oxo-2,3-dihydro-1H-benzoimidazol-5-yl)-pyrimidin-4-ylamino]-ethyl}-1H-indole-2-carbonitrile]",IC50,[1],79 nM
same,IC50,[2],35 nM
"COc1ccc(F)c2c1cc(C#N)n2CCNc1cc(-c2ccc(O)c(C(F)(F)F)c2)ncn1 [Example 1001, 7-Fluoro-1-{2-[6-(4-hydroxy-3-trifluoromethyl-phenyl)-pyrimidin-4-ylamino]-ethyl}-4-methoxy-1H-indole-2-carbonitrile]",IC50,[1],7 nM
same,IC50,[2],6 nM
"CCOc1cc(C(=O)O)cc(-c2cc(NCCn3c(C#N)cc4c(OC)ccc(F)c43)ncn2)c1 [Example 1002, 3-{6-[2-(2-Cyano-7-fluoro-4-methoxy-indol-1-yl)-ethylamino]-pyrimidin-4-yl}-5-ethoxy-benzoic acid]",IC50,[1],31 nM
same,IC50,[2],20 nM
"COc1ccc(F)c2c1cc(C#N)n2CCNc1cc(-c2ccnc(N3CCOCC3)c2)ncn1 [Example 1003, 7-Fluoro-4-methoxy-1-{2-[6-(2-morpholin-4-yl-pyridin-4-yl)-pyrimidin-4-ylamino]-ethyl}-1H-indole-2-carbonitrile]",IC50,[1],131 nM
same,IC50,[2],55 nM
"COc1ccc(F)c2c1cc(C#N)n2CCNc1cc(-c2cccc(CC(=O)O)c2)ncn1 [Example 1004, (3-{6-[2-(2-Cyano-7-fluoro-4-methoxy-indol-1-yl)-ethylamino]-pyrimidin-4-yl}-phenyl)-acetic acid]",IC50,[1],144 nM
same,IC50,[2],117 nM
"COc1cc(C(=O)O)cc(-c2cc(NCCn3c(C#N)cc4c(OC)ccc(F)c43)ncn2)c1 [Example 1005, 3-{6-[2-(2-Cyano-7-fluoro-4-methoxy-indol-1-yl)-ethylamino]-pyrimidin-4-yl}-5-methoxy-benzoic acid]",IC50,[1],55 nM
same,IC50,[2],18 nM
"COc1ccc(F)c2c1cc(C#N)n2CCNc1cc(-c2ccnc(OC(F)F)c2)ncn1 [Example 1006, 1-{2-[6-(2-Difluoromethoxy-pyridin-4-yl)-pyrimidin-4-ylamino]-ethyl}-7-fluoro-4-methoxy-1H-indole-2-carbonitrile]",IC50,[1],450 nM
same,IC50,[2],131 nM
"COc1ccc(F)c2c1cc(C#N)n2CCNc1cc(-c2ccnc(C(F)(F)F)c2)ncn1 [Example 1007, 7-Fluoro-4-methoxy-1-{2-[6-(2-trifluoromethyl-pyridin-4-yl)-pyrimidin-4-ylamino]-ethyl}-1H-indole-2-carbonitrile]",IC50,[1],67 nM
same,IC50,[2],24 nM
"COc1ccc(F)c2c1cc(C#N)n2CCNc1cc(-c2cc(C(=O)O)cs2)ncn1 [Example 1008, 5-{6-[2-(2-Cyano-7-fluoro-4-methoxy-indol-1-yl)-ethylamino]-pyrimidin-4-yl}-thiophene-3-carboxylic acid]",IC50,[1],507 nM
same,IC50,[2],234 nM
"CCOC(=O)c1csc(-c2cc(NCCn3c(C#N)cc4c(OC)ccc(F)c43)ncn2)c1 [Example 1009, 5-{6-[2-(2-Cyano-7-fluoro-4-methoxy-indol-1-yl)-ethylamino]-pyrimidin-4-yl}-thiophene-3-carboxylic acid ethyl ester]",IC50,[1],11 nM
same,IC50,[2],20 nM
"CNc1cc(-c2cc(NCCn3c(C#N)cc4c(OC)ccc(F)c43)ncn2)ccc1C(=O)O [Example 1010, 4-{6-[2-(2-Cyano-7-fluoro-4-methoxy-indol-1-yl)-ethylamino]-pyrimidin-4-yl}-2-methylamino-benzoic acid]",IC50,[1],7 nM
same,IC50,[2],3 nM
"COc1ccc(F)c2c1cc(C#N)n2CCNc1cc(-c2cccc(CCC(=O)O)c2)ncn1 [Example 1011, 3-(3-{6-[2-(2-Cyano-7-fluoro-4-methoxy-indol-1-yl)-ethylamino]-pyrimidin-4-yl}-phenyl)-propionic acid]",IC50,[1],228 nM
same,IC50,[2],120 nM
"CNc1cc(-c2cc(NCCn3c(C)cc4c(C)c(F)cc(F)c43)ncn2)ccc1C(=O)O [Example 1012, 4-{6-[2-(5,7-Difluoro-2,4-dimethyl-indol-1-yl)-ethylamino]-pyrimidin-4-yl}-2-methylamino-benzoic acid]",IC50,[1],37 nM
same,IC50,[2],5 nM
"COc1ccc(F)c2c1cc(C)n2CCNc1cc(-c2cc(OC(C)C)c(CCC(=O)O)s2)ncn1 [Example 1013, 3-(5-{6-[2-(7-Fluoro-4-methoxy-2-methyl-indol-1-yl)-ethylamino]-pyrimidin-4-yl}-3-isopropoxy-thiophen-2-yl)-propionic acid]",IC50,[1],17 nM
same,IC50,[2],14 nM
"CCOc1cc(-c2cc(NCCn3c(C)cc4c(OC)ccc(F)c43)ncn2)[nH]c1C(=O)O [Example 1014, 3-Ethoxy-5-{6-[2-(7-fluoro-4-methoxy-2-methyl-indol-1-yl)-ethylamino]-pyrimidin-4-yl}-1H-pyrrole-2-carboxylic acid]",IC50,[1],351 nM
same,IC50,[2],7 nM
"CCOc1cc(-c2cc(NCCn3c(C)cc4c(OC)ccc(F)c43)ncn2)sc1CCC(=O)O [Example 1015, 3-(3-Ethoxy-5-{6-[2-(7-fluoro-4-methoxy-2-methyl-indol-1-yl)-ethylamino]-pyrimidin-4-yl}-thiophen-2-yl)-propionic acid]",IC50,[1],18 nM
same,IC50,[2],15 nM
"CCOc1cc(-c2cc(NCCn3c(C)cc4c(OC)ccc(F)c43)ncn2)sc1/C=C/C(=O)O [Example 1016, (E)-3-(3-Ethoxy-5-{6-[2-(7-fluoro-4-methoxy-2-methyl-indol-1-yl)-ethylamino]-pyrimidin-4-yl}-thiophen-2-yl)-acrylic acid]",IC50,[1],5 nM
same,IC50,[2],5 nM
"CNc1cc(-c2cc(NCCn3c(C)cc4c(OC)cc(F)cc43)ncn2)ccc1C(=O)O [Example 1017, 4-{6-[2-(6-Fluoro-4-methoxy-2-methyl-indol-1-yl)-ethylamino]-pyrimidin-4-yl}-2-methylamino-benzoic acid]",IC50,[1],31 nM
same,IC50,[2],7 nM
"COc1ccc(F)c2c1cc(C#N)n2CCNc1cc(-c2ccc(C(O)(O)C(F)(F)F)cc2)ncn1 [Example 1018, 7-Fluoro-4-methoxy-1-(2-{6-[4-(2,2,2-trifluoro-1,1-dihydroxy-ethyl)-phenyl]-pyrimidin-4-ylamino}-ethyl)-1H-indole-2-carbonitrile]",IC50,[1],69 nM
same,IC50,[2],94 nM
"COc1ccc(F)c2c1cc(C#N)n2CCNc1cc(-c2ccc(CCC(=O)O)cc2)ncn1 [Example 1019, 3-(4-{6-[2-(2-Cyano-7-fluoro-4-methoxy-indol-1-yl)-ethylamino]-pyrimidin-4-yl}-phenyl)-propionic acid]",IC50,[1],167 nM
same,IC50,[2],485 nM
"N#Cc1cc2c(Cl)cccc2n1CCNc1cc(-c2cc(Cl)c(C(=O)O)s2)ncn1 [Example 1020, 3-Chloro-5-{6-[2-(4-chloro-2-cyano-indol-1-yl)-ethylamino]-pyrimidin-4-yl}-thiophene-2-carboxylic acid]",IC50,[1],29 nM
same,IC50,[2],2 nM
"CCOc1cc(-c2cc(NCCn3c(C)cc4c(OC)ccc(F)c43)ncn2)sc1C(=O)NS(C)(=O)=O [Example 1022, N-(3-Ethoxy-5-{6-[2-(7-fluoro-4-methoxy-2-methyl-indol-1-yl)-ethylamino]-pyrimidin-4-yl}-thiophene-2-carbonyl)-methanesulfonamide]",IC50,[1],18 nM
same,IC50,[2],4 nM
"CCOc1cc(-c2cc(NCCn3c(C#N)cc4c(OC)ccc(F)c43)ncn2)sc1C(=O)NC [Example 1023, 5-{6-[2-(2-Cyano-7-fluoro-4-methoxy-indol-1-yl)-ethylamino]-pyrimidin-4-yl}-3-ethoxy-thiophene-2-carboxylic acid methylamide]",IC50,[1],1 nM
same,IC50,[2],8 nM
"CCNC(=O)c1sc(-c2cc(NCCn3c(C#N)cc4c(OC)ccc(F)c43)ncn2)cc1OCC [Example 1024, 5-{6-[2-(2-Cyano-7-fluoro-4-methoxy-indol-1-yl)-ethylamino]-pyrimidin-4-yl}-3-ethoxy-thiophene-2-carboxylic acid ethylamide]",IC50,[1],2 nM
same,IC50,[2],14 nM
"CCOc1cc(-c2cc(NCCn3c(C#N)cc4c(OC)ccc(F)c43)ncn2)sc1C(=O)N(C)C [Example 1025, 5-{6-[2-(2-Cyano-7-fluoro-4-methoxy-indol-1-yl)-ethylamino]-pyrimidin-4-yl}-3-ethoxy-thiophene-2-carboxylic acid dimethylamide]",IC50,[1],6 nM
same,IC50,[2],33 nM
"CCOc1cc(-c2cc(NCCn3c(C#N)cc4c(OC)ccc(F)c43)ncn2)sc1C(=O)NCCO [Example 1026, 5-{6-[2-(2-Cyano-7-fluoro-4-methoxy-indol-1-yl)-ethylamino]-pyrimidin-4-yl}-3-ethoxy-thiophene-2-carboxylic acid (2-hydroxy-ethyl)-amide]",IC50,[1],1 nM
same,IC50,[2],21 nM
"CCOc1cc(-c2cc(NCCn3c(C#N)cc4c(OC)ccc(F)c43)ncn2)sc1C(=O)NC(C)C [Example 1027, 5-{6-[2-(2-Cyano-7-fluoro-4-methoxy-indol-1-yl)-ethylamino]-pyrimidin-4-yl}-3-ethoxy-thiophene-2-carboxylic acid isopropylamide]",IC50,[1],3 nM
same,IC50,[2],39 nM
